The target of the experiment is T1, TLR8 (Homo sapiens, UniProt Q9NR97).
T1 construct: host or cells: HEK293 (HEK-BLUE-hTLR8)
T1 sequence (Q9NR97 27-1041): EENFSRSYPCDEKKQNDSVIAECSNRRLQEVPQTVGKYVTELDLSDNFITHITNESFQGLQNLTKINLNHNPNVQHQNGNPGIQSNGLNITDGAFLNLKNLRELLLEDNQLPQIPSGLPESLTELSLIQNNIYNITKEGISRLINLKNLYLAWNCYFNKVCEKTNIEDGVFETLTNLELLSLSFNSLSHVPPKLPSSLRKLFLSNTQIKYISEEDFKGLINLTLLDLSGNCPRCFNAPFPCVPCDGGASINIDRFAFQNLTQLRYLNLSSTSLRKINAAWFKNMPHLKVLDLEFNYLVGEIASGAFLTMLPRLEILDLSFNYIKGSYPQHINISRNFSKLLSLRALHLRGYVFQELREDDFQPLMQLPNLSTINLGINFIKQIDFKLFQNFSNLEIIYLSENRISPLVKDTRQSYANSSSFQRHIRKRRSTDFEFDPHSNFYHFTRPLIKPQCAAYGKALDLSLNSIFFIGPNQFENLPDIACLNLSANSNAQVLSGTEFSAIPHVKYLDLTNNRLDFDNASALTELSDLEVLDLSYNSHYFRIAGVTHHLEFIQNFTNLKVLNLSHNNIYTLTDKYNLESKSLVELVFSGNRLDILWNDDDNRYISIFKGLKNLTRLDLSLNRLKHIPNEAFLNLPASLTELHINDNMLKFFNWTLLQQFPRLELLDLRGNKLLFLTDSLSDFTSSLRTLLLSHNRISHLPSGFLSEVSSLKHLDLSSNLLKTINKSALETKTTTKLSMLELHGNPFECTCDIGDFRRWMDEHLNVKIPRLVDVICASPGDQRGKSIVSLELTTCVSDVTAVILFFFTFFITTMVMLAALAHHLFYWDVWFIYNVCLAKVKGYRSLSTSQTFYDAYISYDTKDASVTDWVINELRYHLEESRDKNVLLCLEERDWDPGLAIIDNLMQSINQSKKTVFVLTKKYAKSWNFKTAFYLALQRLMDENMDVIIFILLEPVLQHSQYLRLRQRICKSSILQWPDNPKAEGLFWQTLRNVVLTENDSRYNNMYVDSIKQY
The experiment is described as follows: TLR8 cell based assay (HEK-BLUE-hTLR8, SEAP reporter linked to NF-κB activation). The following applies: HEK-BLUE-hTLR8 cells. On the procedure: In this assay, the bioactivity of compound of formula Iw as measured using a cell based assay. The assay was performed in human embryonic kidney cells (HEK293) expressing TLR8 or other TLR family members such as TLR4, TLR7 and TLR9 (for selectivity screens). The activity of specific TLR agonists was assessed using the secretory embryonic alkaline phosphatase (SEAP) reporter gene that is linked to NF-κB activation in response to TLR stimulation. The SEAP activity was measured using the Quanti-Blue substrate (InvivoGen) after TLR agonist treatment.
The detailed experimental method is as follow:
HEK-BLUE-hTLR8 cell line was purchased from InvivoGen. The cells were cultured in Dulbecco's Modified Eagle's Media containing 4.5 g/L […] (Sigma-Aldrich) and 10% FBS. The cells were cultured at 37° C., 95% humidity and 5% CO2.
Test concentrations of the compounds ranged from 0.5 nM to 15 μM with 10 points. A known TLR8 agonist was added as positive control and 1 μl of DMSO was added as negative control.
The cells were prepared as follows: The cells were removed from the incubator and growth medium was discarded. The cells were gently rinsed with pre-warmed 10 ml PBS for a T-150 flask. 12 ml pre-warmed growth medium was added, and the cells were detached by tapping the flask. Cell clumps were dissociated by gently pipetting up and down. The cells were counted. Single cell suspension was prepared at 200,000 cells per ml in growth medium and 200 μl of the cell suspension (40,000 cells per well) were immediately added to each well of the plate. The final DMSO concentration of each well was 0.5%.
The cells were cultured and treated with the compounds at 37° C., 5% CO2 for 24 h.
20 μL of the supernatant of each well were added to 180 μL of QUANTI-Blue, and the plates were incubated at 37° C. for 1.5 hour. Optical density was measured using a spectrophotometer at 650 nm (OD data). Activivation was calculated by using the equation below: Activivation %=(Compound OD mean value−DMSO OD mean value)/(positive control OD mean value−DMSO OD mean value)×100
The data were analyzed using the GraphPad to get EC50 values and fitting dose response curves of the compounds.

[1] abbreviates: 24 h treatment, SEAP/QUANTI-Blue readout.

As a reminder, the EC50 is the concentration giving half of the maximal effect. Lower therefore signals an effect from little substance.

For the molecule `CCCN(CCC)C(=O)C1=Cc2ccc(-c3ccc4c(=O)n(Cc5nccn5C(C)C)ccc4c3)cc2N=C(N)C1` [Compound 1-2-49], the EC50 under setting [1] is < 100 nM.

In turn, `CCCN(CCC)C(=O)C1=Cc2ccc(-c3ccc4c(=O)n(CCc5ccccn5)ccc4c3)cc2N=C(N)C1` [Compound 1-2-50] showed an EC50 under setting [1] of 100 to 1000 nM. Same read-out and setting: as for `CCCN(CCC)C(=O)C1=Cc2ccc(-c3ccc4ccn(CCO)c(=O)c4c3)cc2N=C(N)C1` [Compound 1-2-51], the figure is 1000 to 10000 nM; as for `CCCN(CCC)C(=O)C1=Cc2ccc(-c3ccc4c(c3)CN(CC)C4=O)cc2N=C(N)C1` [Compound 1-3-1], < 100 nM. For the molecule `CCCN(CCC)C(=O)C1=Cc2ccc(-c3ccc4c(c3)CCN(CC)C4=O)cc2N=C(N)C1` [Compound 1-4-1], the EC50 under setting [1] is 100 to 1000 nM. Still for that read-out and setting: the value for `CCCN(CCC)C(=O)C1=Cc2ccc(-c3cc4c(=O)n(CC)ccc4n3C)cc2N=C(N)C1` [Compound 1-5-1] was 1000 to 10000 nM. Still for that read-out and setting: as for `CCCN(CCC)C(=O)C1=Cc2ccc(-c3cc4c(=O)n(CC)ccc4s3)cc2N=C(N)C1` [Compound 1-5-2], the figure is 1000 to 10000 nM; as for `CCCN(CCC)C(=O)C1=Cc2ccc(-c3cnc4c(c3)CN(CCO)C4=O)cc2N=C(N)C1` [Compound 1-6-1], 100 to 1000 nM; as for `CCCN(CCC)C(=O)C1=Cc2ccc(-c3ccc4c(n3)CN(CCO)C4=O)cc2N=C(N)C1` [Compound 1-6-2], 100 to 1000 nM.

Molecule `CCCN(CCC)C(=O)C1=Cc2ccc(-c3ccc4c(=O)n(CC(N)=O)cnc4c3)cc2N=C(N)C1` [Compound 1-7-1] returned an EC50 under setting [1] of 100 to 1000 nM. Still for that read-out and setting: as for `CCCN(CCC)C(=O)C1=Cc2ccc(-c3ccc4c(=O)n(CC(=O)NC)cnc4c3)cc2N=C(N)C1` [Compound 1-7-3], the figure is < 100 nM. Same read-out and setting: as for `CCCN(CCC)C(=O)C1=Cc2ccc(-c3ccc4c(=O)n(CC(C)(C)O)cnc4c3)cc2N=C(N)C1` [Compound 1-7-5], the figure is < 100 nM; as for `CCCN(CCC)C(=O)C1=Cc2ccc(-c3ccc4c(=O)n(CCNS(C)(=O)=O)cnc4c3)cc2N=C(N)C1` [Compound 1-7-6], 100 to 1000 nM. `CCCN(CCC)C(=O)C1=Cc2ccc(-c3ccc4c(=O)n(CCCS(C)(=O)=O)ncc4c3)cc2N=C(N)C1` [Compound 1-8-6]: the EC50 is < 100 nM under setting [1] and < 10 nM (bound stated). Regarding `CCCN(CCC)C(=O)C1=Cc2ccc(-c3ccc4c(=O)n(CCC(N)=O)ncc4c3)cc2N=C(N)C1` [Compound 1-8-7], under setting [1], the EC50 is < 100 nM.

Regarding `CCCN(CCC)C(=O)C1=Cc2ccc(-c3ccc4c(=O)n(CCNS(C)(=O)=O)ncc4c3)cc2N=C(N)C1` [Compound 1-8-8], under setting [1], the EC50 is < 100 nM. Take `CCCN(CCC)C(=O)C1=Cc2ccc(-c3ccc4c(=O)n(CCOC)ncc4c3)cc2N=C(N)C1` [Compound 1-8-9]: the EC50 was < 100 nM under setting [1] and < 10 nM (bound stated). Take `CCCN(CCC)C(=O)C1=Cc2ccc(-c3ccc4c(=O)n(Cc5nccs5)ncc4c3)cc2N=C(N)C1` [Compound 1-8-10]: under setting [1], the EC50 was < 100 nM. Same read-out and setting: the value for `CCCN(CCC)C(=O)C1=Cc2ccc(-c3ccc4c(=O)n(CC[S+](C)[O-])ncc4c3)cc2N=C(N)C1` (centres unmarked) [Compound 1-8-11] was < 100 nM; that for `CCCN(CCC)C(=O)C1=Cc2ccc(-c3ccc4c(=O)n(CCn5cccn5)ncc4c3)cc2N=C(N)C1` [Compound 1-8-13] was < 100 nM. Still for that read-out and setting: as for `CCCN(CCC)C(=O)C1=Cc2ccc(-c3ccc4c(=O)n(CCP(=O)(OCC)OCC)ncc4c3)cc2N=C(N)C1` [Compound 1-8-14], the figure is < 100 nM. For `CCCN(CCC)C(=O)C1=Cc2ccc(-c3ccc4c(=O)n(Cc5nc(C)cc(C)n5)ncc4c3)cc2N=C(N)C1` [Compound 1-8-17], the EC50 was < 100 nM under setting [1] and < 10 nM (bound stated).

For `CCCN(CCC)C(=O)C1=Cc2ccc(-c3ccc4c(=O)n(CCP(C)(=O)OCC)ncc4c3)cc2N=C(N)C1` (centres unmarked) [Compound 1-8-18], the EC50 under setting [1] was < 100 nM. Same read-out and setting: the value for `CCCN(CCC)C(=O)C1=Cc2ccc(-c3ccc4c(=O)n(Cc5ccccc5)ncc4c3)cc2N=C(N)C1` [Compound 1-8-19] was 100 to 1000 nM; that for `CCCN(CCC)C(=O)C1=Cc2ccc(-c3ccc4c(=O)n(Cc5ccccn5)ncc4c3)cc2N=C(N)C1` [Compound 1-8-20] was < 100 nM; that for `CCCN(CCC)C(=O)C1=Cc2ccc(-c3ccc4c(=O)n(Cc5nc(OC)cc(OC)n5)ncc4c3)cc2N=C(N)C1` [Compound 1-8-21] was < 100 nM.

Under setting [1], `CCCN(CCC)C(=O)C1=Cc2ccc(-c3ccc4c(=O)n(CC(N)=O)c(=O)n(C)c4c3)cc2N=C(N)C1` [Compound 1-9-3] came in with an EC50 of 100 to 1000 nM. `CCCN(CCC)C(=O)C1=Cc2ccc(-c3ccc4c(=O)n(CC(C)(C)O)c(=O)n(C)c4c3)cc2N=C(N)C1` [Compound 1-9-5] returned an EC50 under setting [1] of 100 to 1000 nM. Turning to `CCCN(CCC)C(=O)C1=Cc2ccc(-c3ccc4c(=O)n(CCNS(C)(=O)=O)c(=O)n(C)c4c3)cc2N=C(N)C1` [Compound 1-9-6], the EC50 under setting [1] was < 100 nM. `CCCN(CCC)C(=O)C1=Cc2c(F)cc(-c3ccc4c(=O)n(CCS(C)(=O)=O)ncc4c3)cc2N=C(N)C1` [Compound 1-10-2]: under setting [1], the EC50 was < 100 nM.

Take `CCCN(CCC)C(=O)C1=Cc2c(F)cc(-c3ccc4c(=O)n(CC(=O)NC)ccc4c3)cc2N=C(N)C1` [Compound 1-10-3]: the EC50 under setting [1] was < 100 nM. Same read-out and setting: as for `CCCN(CCC)C(=O)C1=Cc2c(F)cc(-c3ccc4c(=O)n(CCS(C)(=O)=O)ccc4c3)cc2N=C(N)C1` [Compound 1-10-4], the figure is < 100 nM; as for `CCCN(CCC)C(=O)C1=Cc2c(F)cc(-c3ccc4c(=O)n(CC(=O)NC)c(=O)n(C)c4c3)cc2N=C(N)C1` [Compound 1-10-5], < 100 nM. Still for that read-out and setting: the value for `CCCN(CCC)C(=O)C1=Cc2c(F)cc(-c3ccc4c(=O)n(CC(=O)NC)ncc4c3)cc2N=C(N)C1` [Compound 1-10-6] was < 100 nM.

Regarding `CCCN(CCC)C(=O)C1=Cc2c(F)cc(-c3ccc4c(=O)n(CC(=O)NCC)ccc4c3)cc2N=C(N)C1` [Compound 1-10-7], under setting [1], the EC50 is < 100 nM. For the molecule `CCCN(CCC)C(=O)C1=Cc2c(F)cc(-c3ccc4c(=O)n(CC(=O)NC)cnc4c3)cc2N=C(N)C1` [Compound 1-10-8], the EC50 under setting [1] is < 100 nM. Same read-out and setting: the value for `CCCN(CCC)C(=O)C1=Cc2c(F)cc(-c3ccc4c(=O)n(CCS(C)(=O)=O)c(=O)n(C)c4c3)cc2N=C(N)C1` [Compound 1-10-10] was 100 to 1000 nM. On the same count and under the same terms, the value for `CCCN(CCO)C(=O)C1=Cc2ccc(-c3ccc4c(=O)n(CC(N)=O)ccc4c3)cc2N=C(N)C1` [Compound 1-12-1] was 100 to 1000 nM. With `CCCN(CCC)C(=O)C1=Cc2ccc(-c3ccc4c(=S)n(Cc5ncccn5)ncc4c3)cc2N=C(N)C1` [Compound 1-14-1], the EC50 under setting [1] was < 100 nM and the EC50 (bound stated) is < 10 nM. For `CCCN(CCC)C(=O)C1=Cc2ccc(-c3ccc4c(=S)n(CCS(C)(=O)=O)ncc4c3)cc2N=C(N)C1` [Compound 1-14-2] the same measures were < 100 nM and < 10 nM. `CCCN(CCC)C(=O)C1=Cc2ccc(-c3ccc4c(=S)n(Cc5cnccn5)ccc4c3)cc2N=C(N)C1` [Compound 1-14-5]: the EC50 under setting [1] is < 100 nM.

Consider `CCCN(CCC)C(=O)C1=Cc2ccc(-c3ccc4c(=S)n(Cc5cnccn5)ncc4c3)cc2N=C(N)C1` [Compound 1-14-6], for which the EC50 under setting [1] is < 100 nM.

These data come from US10669252B2, “Benzazepine derivative, preparation method, pharmaceutical composition and use thereof” (SHANGHAI DE NOVO PHARMATECH CO., LTD., priority 2016, dated 2020).
